In brackets after ≈: the same amount, converted by molar mass. Entries after “also recorded” stand apart in the source; their conditions may differ.
Columns and labels:
pig liver esterase = assay: Enzymatic metabolizing study with pig liver esterase (1H NMR); type: in vitro ADME; settings: 37° C., pH 7.4 buffer; ester complete at 10 minutes; amide followed up to 8 hours
Protocol: First the present invention establishes the metabolised process of the temozolomide esters by pig liver esterase in vitro. ^1H NMR spectra 1 (FIG. 1) records the degradation profile of the temozolomide methyl ester under incubation condition (Rathbone D L, 1999). […] Finally, at 10 minutes, the intensity of the singlet at 3.58 ppm grows to the grade similar to the original of the two singlets at 3.63 and 3.65 ppm, which while are completely eliminated. […] This discovery establishes the solid foundation for the temozolomide esters to be considered as the potential anticancer pro-drugs.
Enzymatic metabolizing studies of the temozolomide methyl ester was carried out using pig liver esterase enzyme from Sigma [a suspension in 3.2 M ammonium sulphate solution pH 8; 200 unit/mg protein (14 mg protein/ml)]. • A. To a NMR tube 2 mg of the temozolomide methyl ester was added, followed by 0.2 ml of d6-DMSO, 0.5 ml D2O of pH 7.4 sulphate buffer and finally 50 μl of the enzyme solution. Record a ^1H NMR spectrum immediately, then the mixture was incubated at 37° C. and record a ^1H NMR spectrum at each 5 minutes time interval. […] The samples were dissolved in d6-DMSO in an NMR tube, 50 μl of enzyme solution was added and the solution incubated at 37° C.

[1] = In vitro permeation and metabolism, Franz diffusion cell, human skin; type: in vitro ADME
Excerpt: (§1) Jacketed Franz-type diffusion cells were used throughout the study and the barrier (12) (skin or silicone membrane) was mounted between the two chambers (14, 16) (2.8–3.4 cm^2 available surface area) with the dermal side in contact with the receiver solution (FIG. 2). The diffusion chambers (10) comprised a barrier of skin or silicone membrane (12) mounted between two chambers (14, 16). A cap (18) formed the donor compartment (14). The second receptor compartment (16) contained a receptor cell (20) with a stirring bar (22), sampling port (24) and cover (26). The stirring bar (22) was stirred by means of a magnet plate (28) having a rotating magnet. The receptor compartment comprised a water jacket (30) having a water inlet (32) and a water outlet (34).
(§2) Three types of materials were used in permeation studies. • 1. Silicone membrane (Silastic Medical Grade, 500-5, Dow Corning 0.005 in thick) was cut into circular sections (2 cm diameter) and washed with double distilled water prior to use. • 2. Full-thickness rat skin was obtained from Male Wistar rats aged 10 to 12 weeks and weighing 250 to 300 g, which were sacrificed by cervical dislocation, the abdomen shaved and the intact skin removed by dissection. Following removal of fat tissue, the skin was cut into circular pieces and used immediately. • 3. Samples of adult human epidermis were purchased from the Stephen Kirby Skin Bank (UK). The samples were from the leg, were stored at −18° C. and used within one week. Experiments
The membrane (as detailed above) was mounted on the diffusion cell (10), on which the surface area available for diffusion of each cell was about 2.8–3.4 cm^2. The cell cap (18) was placed on the membrane (12), and it was sealed with Parafilm® connecting the cell cap, membrane, and receptor cell. […] The concentration of each sample solution was determined by using HPLC. […]
As stated above, after the removal of receptor solution, the receiver compartment was refilled with an identical volume of receptor fluid. […] As a consequence, it was necessary to mathematically correct each successive sample concentrations, in the present invention, which was determined by applying the following equation:
(§3) [formula] where Ct is the actual current concentration of drug in the receptor phase at time t, Cmt is the apparent (i.e. measured) current concentration of drug in the receptor phase, Vs is the sample volume withdrawn for analysis, Vr is the volume of receptor solution, and ΣCm is the summed total of the previous measured concentrations.
(§4) Finally, the amount of drug penetrating the skin per unit area was calculated by dividing the obtained concentrations by the surface area available for diffusion cell and this value was different for each individual cell. […]

[2] = Solubility in 10% v/v propylene glycol; type: physicochemical; settings: 10% v/v propylene glycol aqueous solution, aqueous with cosolvent or surfactant or cyclodextrin, thermodynamic from solid, ambient conditions, stirred 5 hours, read-out: Solubility, Concentration
Protocol: The potential of temozolomide esters used as topical and transdermal prodrugs is first proven through studies of their solubility. That is a decreased trend of solubility in an aqueous solution with increase of the length of the ester hydrocarbon alkyl chain of the temozolomide esters. It is clear the solubility constantly decreases from the methyl ester to the octyl ester, while temozolomide itself is 3.0 mg/ml similar to that of the methyl ester. […] Similarly to the esters, the solubility of the temozolomide amide products in the aqueous solution is considerably lower than that of temozolomide.
The solubility of temozolomide and the temozolomide esters was determined in 10% v/v propylene glycol by stirring an excess of the solid products at room temperature for 5 hours. The mixtures were then filtered, diluted with sample solvent and analysed using HPLC.

SHG-44 (human glioma) = assay: In vitro tumour cell growth inhibition (MTT), SHG-44; type: cell-based; settings: Homo sapiens, SHG-44, Table 2 experiment, 96 h
Protocol: (§5) Temozolomide (white powder), temozolomide acid (white powder) and temozolomide-8-carboxylate hexyl (white scale crystal) were made in house. For the estimation of in vitro tumour cell growth inhibition, MV3 (human melanoma), M14 (human melanoma), B16 and B16-BL6 (mouse melanoma), SHG-44, TJ899 and TJ905 (human glioma), MCF-7 (human breast), HCT-8 (human colon), A549 (human non small lung), Bel7402 (human hepatocellulor), and BGC-823 (human stomach) were used. All tumour cells were cultured in RPMI-1640 medium supplemented with 10% fetal bovine serum (FBS) at 37° C. in a humidified 5% CO2 incubator.
(§6) After being harvested from culture flasks, a cell suspension of 1×10^4/ml was made by using 1640 RPMI medium supplemented with 10% fetal bovine serum. 100 μl (contains 1000 tumour cells) of the cell suspension was seeded per well of 96-well flat-bottom Costar culture plates at 37° C. in a humidified 5% CO2 incubator for 24 hrs before introducing drugs. Each tested compounds was made for five different concentrations and 100 μl of the each concentration was introduced into parallel three wells; control wells were added with 100 μl of plain medium alone; fluorouracil (a chemotherapeutic antitumour drug) was used as the positive control. Cells were then incubated for 96 h. Proliferative response and cell death were determined using MTT (3-(4,5-dimethylthiazolyl)-2,5-diphenyl-tetrazolium bromide) assay.
(§7) MTT assay: Following incubation of cells with the tested compounds for 96 h, 100 μl of 0.4 mg/ml MTT in RPMI 1640 was added to each well and the plate was incubated at 37° C. for 4 h. The plate was then centrifuged and followed by removal of medium. 150 μl of DMSO was then added to dissolve formazan crystal. DMSO-added plates were placed on a plate shaker for 5 min and absorbance was measured spectrophotometrically at 540 nm (with reference wavelength at 450 nm) using a Benchmark microtiter plate reader (Bio-Rad 550, Bio-Rad Laboratories, CA, U.S.A.).
(§8) The IC50 was calculated from the curve of the tested compound concentrations against the inhibition rate of the tumour cells. Table 1 summarized the experiment results by using six human cancer cell lines, HCT-8 (colon carcinoma), A549 (non small lung carcinoma), MCF-7 (breast), Bel7402 (hepatocellulor carcinoma), BGC-823 (stomach adenocarcinoma), and MV3 (melanoma). Table 2 summarized the results from the experiment results by using two human melanoma cell lines, MV3 and M14, two mouse melanoma cell lines, B16 and B16-BL6, and three human glioma cell lines, TJ899, SHG-44 and TJ905.

[3] = In vitro permeation, Franz diffusion cell, silicone membrane; type: in vitro ADME; settings: 37° C., 8 h, FIGS. 3-5
Excerpt: as §1, §2
The membrane (as detailed above) was mounted on the diffusion cell (10), on which the surface area available for diffusion of each cell was about 2.8–3.4 cm^2. The cell cap (18) was placed on the membrane (12), and it was sealed with Parafilm® connecting the cell cap, membrane, and receptor cell. The capacity of each receptor cell was around 25–26 ml, which was filled with receptor solution and was completely in contact with the membrane sheet. During the course of experiment, the solution was continuously stirred by teflon-coated magnetic bar (22) placed in the cell (20). The temperature was maintained at 37° C. by a thermostatic water pump that circulated the water through the jacket (30) surrounding the cell body. The system was allowed to equilibrate under these conditions for half an hour. Finally, the prepared sample solution (2 ml) was added into the donor cap cell, and it was sealed with Parafilm® to minimize the evaporation of donor solution. 1 ml of receptor solution was removed every 30 minutes for 5 hours and then every 60 minutes for a further 3 hours. The volumes withdrawn were always replaced with equal volumes of fresh receptor solution to maintain constant volume. The concentration of each sample solution was determined by using HPLC.
For every sample, six determinations were performed on human and rat skin, and three determinations were carried out through artificial silicone membrane.
As stated above, after the removal of receptor solution, the receiver compartment was refilled with an identical volume of receptor fluid. This causes of the dilution of receptor solution leading to an under determination of the sample concentration. As a consequence, it was necessary to mathematically correct each successive sample concentrations, in the present invention, which was determined by applying the following equation:
as §3, §4

M14 (human melanoma) = assay: In vitro tumour cell growth inhibition (MTT), M14; type: cell-based; settings: Homo sapiens, Table 2 experiment, 96 h
Protocol: as §5, §6, §7, §8

MV3 (human melanoma) = assay: In vitro tumour cell growth inhibition (MTT), MV3; type: cell-based; settings: Homo sapiens, 96 h
Protocol: as §5, §6, §7, §8

TJ905 (human glioma) = assay: In vitro tumour cell growth inhibition (MTT), TJ905; type: cell-based; settings: Homo sapiens, Table 2 experiment, 96 h
Protocol: as §5, §6, §7, §8

B16-BL6 (mouse melanoma) = assay: In vitro tumour cell growth inhibition (MTT), B16-BL6; type: cell-based; settings: Mus musculus, B16-BL6, Table 2 experiment, 96 h
Protocol: as §5, §6, §7, §8

[4] = Measured log P, octanol/water; type: physicochemical; settings: octanol/water system; read-out: measured Log P (mLog P)
Protocol: Log P values of temozolomide (1) and the temozolomide esters were calculated using TSAR (Oxford Molecular, Oxford, UK), Molecular Modeling Pro (ChemSW, Fairfield, Calif.) and Chem Office 7.0 (CambridgeSoft, Cambridge, UK) programmes. Calculated Log P values were verified for temozolomide and the temozolomide hexyl ester by measuring the octanol/water coefficient (Table 4).

B16 (mouse melanoma) = assay: In vitro tumour cell growth inhibition (MTT), B16; type: cell-based; settings: Mus musculus, Table 2 experiment, 96 h
Protocol: as §5, §6, §7, §8

TJ899 (human glioma) = assay: In vitro tumour cell growth inhibition (MTT), TJ899; type: cell-based; settings: Homo sapiens, Table 2 experiment, 96 h
Protocol: as §5, §6, §7, §8

MCF-7 (human breast) = assay: In vitro tumour cell growth inhibition (MTT), MCF-7; type: cell-based; settings: MCF7, Table 1 experiment, 96 h
Protocol: as §5, §6, §7
(§9) The IC50 was calculated from the curve of the tested compound concentrations against the inhibition rate of the tumour cells. […]

BGC-823 (human stomach) = assay: In vitro tumour cell growth inhibition (MTT), BGC-823; type: cell-based; settings: Table 1 experiment, 96 h
Protocol: as §5, §6, §7, §9

TLX5 lymphoma cell line = settings: Tsang 1990; cited from earlier work
[5] = tested on: A549 (human non small lung); assay: In vitro tumour cell growth inhibition (MTT), A549; type: cell-based; settings: Table 1 experiment, 96 h
Protocol: as §5, §6, §7, §9

[6] = tested on: Bel7402 (human hepatocellulor); assay: In vitro tumour cell growth inhibition (MTT), Bel-7402; type: cell-based; settings: Table 1 experiment, 96 h
Protocol: as §5, §6, §7, §9

HCT-8 (human colon) = assay: In vitro tumour cell growth inhibition (MTT), HCT-8; type: cell-based; settings: Table 1 experiment, 96 h
Protocol: as §5, §6, §7, §9

SMILES	Degradation to temozolomide acid by pig liver esterase (pig liver esterase)	Permeation through human skin ([1]; 37° C., FIG. 9)	Metabolism within human skin to temozolomide acid ([1]; human skin)	solubility at 5 h [2] [µg/mL]	IC50 (SHG-44 (human glioma)) [µg/mL]	Permeation through synthetic silicone membrane [3]	IC50 (M14 (human melanoma)) [µg/mL]	IC50 (MV3 (human melanoma); Table 2 experiment (separate)) [µg/mL]	IC50 (TJ905 (human glioma)) [µg/mL]	IC50 (B16-BL6 (mouse melanoma)) [µg/mL]	logP [4]	IC50 (B16 (mouse melanoma)) [µg/mL]	IC50 (TJ899 (human glioma)) [µg/mL]	IC50 (MCF-7 (human breast)) [µg/mL]	IC50 (BGC-823 (human stomach)) [µg/mL]	in vitro IC50 compared with temozolomide (TLX5 lymphoma cell line)	IC50 [5] [µg/mL]	IC50 [6] [µg/mL]	IC50 (MV3 (human melanoma); Table 1 experiment) [µg/mL]	IC50 (HCT-8 (human colon)) [µg/mL]
CCCCNC(=O)c1ncn2c(=O)n(C)nnc12 [Temozolomide n-butyl amide, 3-Methyl-N-(n-butyl)-4-oxoimidazo[5,1-d]-1,2,3,5-tetrazine-8-carboxamide]	no the temozolomide acid was observed; also recorded: gradually decomposed into un-identifiable products without the observation of temozolomide acid	notably better than temozolomide	resistant to metabolism	1800 (≈ 7190 µM)	–	–	–	–	–	–	–	–	–	–	–	–	–	–	–	–
Cn1nnc2c(C(N)=O)ncn2c1=O [Temozolomide, 8-Carbamoyl-3-methylimidazo[5,1-d]-1,2,3,5-tetrazine-4(3H)-one]	–	–	–	3000 (≈ 15500 µM)	9.04 (≈ 46.6 µM)	can not pass through the synthetic membrane easily; also recorded: lowest permeation	> 100	7.86 (≈ 40.5 µM)	> 100	> 100	-0.66	61.9 (≈ 319 µM)	> 100	–	–	–	–	–	–	–
Cn1nnc2c(C(=O)O)ncn2c1=O [temozolomide acid, 3,4-dihydro-3-methyl-4-oxoimidazo[5,1-d]-1,2,3,5-tetrazine-8-carboxylic acid]	–	–	–	–	7.07 (≈ 36.2 µM)	–	99 (≈ 507 µM)	36 (≈ 185 µM)	> 100	43.5 (≈ 223 µM)	–	36.2 (≈ 185 µM)	> 100	14.9 (≈ 76.4 µM)	> 19.5	almost identical to that of temozolomide	> 19.5	17 (≈ 86.9 µM)	14.6 (≈ 74.9 µM)	18.5 (≈ 94.9 µM)

— patent publication US7173021B2, “Synthesis of temozolomide esters as potent anticancer pro-drugs for topical and transdermal applications in treatments of cancers” (Tianjin North Pharm Sci-Tech Co., Ltd., priority 2004, dated 2007)
